{"source": "patent US8574563B2", "about": "(Bristol-Myers Squibb Company, priority 2006, dated 2013)", "system": "HCV 1b-377-neo replicon cells", "assay": "HCV replicon assay, HCV 1b-377-neo replicon cells (1b FRET)", "format": "cell-based, Hepatitis C virus genotype 1b", "settings": "Hepatitis C virus, HCV 1b-377-neo replicon cells; HCV 1b genotype; read-out: EC50 range against HCV 1b (Table 2, Range)", "outline": "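FRET-based replicon assay in HCV 1b-377-neo cells, including a comparison line carrying the NS5A Y2065H mutation that confers resistance to a reference compound.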", "note": "pEC50: −log10 of the molar value."}
{"smiles": "CCC(C)[C@H](NC)C(=O)N1CCC[C@H]1c1nc(-c2ccc(-c3ccc(-c4cnc([C@@H]5CCCN5C(=O)[C@@H](NC)C(C)CC)[nH]4)cc3)cc2)c[nH]1", "note": "(stereo partly drawn) [Example F33, (2S)-N,3-dimethyl-1-((2S)-2-(4-(4′-(2-((2S)-1-((2S)-3-methyl-2-(methylamino)pentanoyl)-2-pyrrolidinyl)-1H-imidazol-5-yl)-4-biphenylyl)-1H-imidazol-2-yl)-1-pyrrolidinyl)-1-oxo-2-pentanamine]", "values": [{"measurement": "pEC50", "value": "6.00 to 7.00"}]}
{"smiles": "CN[C@H](C(=O)N1CCC[C@H]1c1nc(-c2ccc(-c3ccc(-c4cnc([C@@H]5CCCN5C(=O)[C@@H](NC)C(C)C)[nH]4)cc3)cc2)c[nH]1)C(C)C", "note": "[Example F34, (2S)-N,3-dimethyl-1-((2S)-2-(4-(4′-(2-((2S)-1-((2S)-3-methyl-2-(methylamino)butanoyl)-2-pyrrolidinyl)-1H-imidazol-5-yl)-4-biphenylyl)-1H-imidazol-2-yl)-1-pyrrolidinyl)-1-oxo-2-butanamine]", "values": [{"measurement": "pEC50", "value": "7.00 to 9.00"}]}
{"smiles": "CC[C@@H](C)[C@H](NC)C(=O)N1CCC[C@H]1c1nc(-c2ccc(-c3ccc(-c4cnc([C@@H]5CCCN5C(=O)[C@@H](NC)[C@H](C)CC)[nH]4)cc3)cc2)c[nH]1", "note": "[Example F35, (2S,3R)-N,3-dimethyl-1-((2S)-2-(4-(4′-(2-((2S)-1-((2S,3R)-3-methyl-2-(methylamino)pentanoyl)-2-pyrrolidinyl)-1H-imidazol-5-yl)-4-biphenylyl)-1H-imidazol-2-yl)-1-pyrrolidinyl)-1-oxo-2-pentanamine]", "values": [{"measurement": "pEC50", "value": "6.00 to 7.00"}]}
{"smiles": "COC(=O)N[C@](C)(C(=O)N1CCC[C@H]1c1nc(-c2ccc(-c3ccc(-c4cnc([C@@H]5CCCN5C(=O)[C@@](C)(NC(=O)OC)C(C)C)[nH]4)cc3)cc2)c[nH]1)C(C)C", "note": "[Example F37, methyl ((1S)-1-(((2S)-2-(4-(4′-(2-((2S)-1-((2S)-2-((methoxycarbonyl)amino)-2,3-dimethylbutanoyl)-2-pyrrolidinyl)-1H-imidazol-5-yl)-4-biphenylyl)-1H-imidazol-2-yl)-1-pyrrolidinyl)carbonyl)-1,2-dimethylpropyl)carbamate]", "values": [{"measurement": "pEC50", "value": "6.00 to 7.00"}]}
{"smiles": "COC(=O)N[C@H](C(=O)N1CCC[C@H]1c1nc(-c2ccc(-c3ccc(-c4cnc([C@@H]5CCCN5C(=O)[C@@H](NC(=O)OC)C5CCOCC5)[nH]4)cc3)cc2)c[nH]1)C1CCOCC1", "note": "[Example F38, methyl ((1S)-2-((2S)-2-(4-(4′-(2-((2S)-1-((2S)-2-((methoxycarbonyl)amino)-2-(tetrahydro-2H-pyran-4-yl)acetyl)-2-pyrrolidinyl)-1H-imidazol-5-yl)-4-biphenylyl)-1H-imidazol-2-yl)-1-pyrrolidinyl)-2-oxo-1-(tetrahydro-2H-pyran-4-yl)ethyl)carbamate]", "values": [{"measurement": "pEC50", "value": "9.00 to 12.00"}]}
{"smiles": "COC(=O)NC(C(=O)N1CCC[C@H]1c1nc(-c2ccc(-c3ccc(-c4cnc([C@@H]5CCCN5C(=O)C(NC(=O)OC)C5CCOCC5)[nH]4)cc3)cc2)c[nH]1)C1CCOCC1", "note": "(stereo partly drawn) [Example F39, methyl (2-((2S)-2-(4-(4′-(2-((2S)-1-(((methoxycarbonyl)amino)(tetrahydro-2H-pyran-4-yl)acetyl)-2-pyrrolidinyl)-1H-imidazol-5-yl)-4-biphenylyl)-1H-imidazol-2-yl)-1-pyrrolidinyl)-2-oxo-1-(tetrahydro-2H-pyran-4-yl)ethyl)carbamate]", "values": [{"measurement": "pEC50", "value": "9.00 to 12.00"}]}
{"smiles": "CCN[C@@H](C(=O)N1CCC[C@H]1c1ncc(-c2ccc(-c3ccc(-c4c[nH]c([C@@H]5CCCN5C(=O)[C@H](C)NC(=O)OC)n4)cc3)cc2)[nH]1)c1ccccc1", "note": "[Example F41, methyl ((1S)-2-((2S)-2-(4-(4′-(2-((2S)-1-((2R)-2-(ethylamino)-2-phenylacetyl)-2-pyrrolidinyl)-1H-imidazol-5-yl)-4-biphenylyl)-1H-imidazol-2-yl)-1-pyrrolidinyl)-1-methyl-2-oxoethyl)carbamate]", "values": [{"measurement": "pEC50", "value": "9.00 to 12.00"}]}
{"smiles": "CCN(CC)[C@@H](C(=O)N1CCC[C@H]1c1nc(-c2ccc(-c3ccc(-c4cnc([C@@H]5CCCN5C(=O)[C@@](C)(NC(=O)OC)C(C)C)[nH]4)cc3)cc2)c[nH]1)c1ccccc1", "note": "[Example F43, methyl ((1S)-1-(((2S)-2-(5-(4′-(2-((2S)-1-((2R)-2-(diethylamino)-2-phenylacetyl)-2-pyrrolidinyl)-1H-imidazol-4-yl)-4-biphenylyl)-1H-imidazol-2-yl)-1-pyrrolidinyl)carbonyl)-1,2-dimethylpropyl)carbamate]", "values": [{"measurement": "pEC50", "value": "9.00 to 12.00"}]}
{"smiles": "COC(=O)N[C@H](C(=O)N1CCC[C@H]1c1nc(-c2ccc(-c3ccc(-c4c[nH]c([C@@H]5CCCN5C(=O)[C@H](C)NC5CCOCC5)n4)cc3)cc2)c[nH]1)C(C)C", "note": "[Example F48, methyl ((1S)-2-methyl-1-(((2S)-2-(4-(4′-(2-((2S)-1-(N-(tetrahydro-2H-pyran-4-yl)-L-alanyl)-2-pyrrolidinyl)-1H-imidazol-4-yl)-4-biphenylyl)-1H-imidazol-2-yl)-1-pyrrolidinyl)carbonyl)propyl)carbamate]", "values": [{"measurement": "pEC50", "value": "9.00 to 12.00"}]}
{"smiles": "COC(=O)N[C@H](C(=O)N1CCC[C@H]1c1nc(-c2ccc(-c3ccc(-c4c[nH]c([C@@H]5CCCN5C(=O)[C@@H](NC5CCOCC5)C(C)C)n4)cc3)cc2)c[nH]1)C(C)C", "note": "[Example F49, methyl ((1S)-2-methyl-1-(((2S)-2-(4-(4′-(2-((2S)-1-(N-(tetrahydro-2H-pyran-4-yl)-L-valyl)-2-pyrrolidinyl)-1H-imidazol-4-yl)-4-biphenylyl)-1H-imidazol-2-yl)-1-pyrrolidinyl)carbonyl)propyl)carbamate]", "values": [{"measurement": "pEC50", "value": "7.00 to 9.00"}]}
{"smiles": "COC(=O)N[C@H](C(=O)N1CCC[C@H]1c1nc(-c2ccc(-c3ccc(-c4c[nH]c([C@@H]5CCCN5C(=O)CNC5CCOCC5)n4)cc3)cc2)c[nH]1)C(C)C", "note": "[Example F51, methyl ((1S)-2-methyl-1-(((2S)-2-(4-(4′-(2-((2S)-1-(N-(tetrahydro-2H-pyran-4-yl)glycyl)-2-pyrrolidinyl)-1H-imidazol-4-yl)-4-biphenylyl)-1H-imidazol-2-yl)-1-pyrrolidinyl)carbonyl)propyl)carbamate]", "values": [{"measurement": "pEC50", "value": "9.00 to 12.00"}]}
{"smiles": "COC(=O)N[C@H](C(=O)N1CCC[C@H]1c1nc(-c2ccc(-c3ccc(-c4c[nH]c([C@@H]5CCCN5C(=O)[C@H](NC5CCOCC5)C(C)C)n4)cc3)cc2)c[nH]1)C(C)C", "note": "[Example F52, methyl ((1S)-2-methyl-1-(((2S)-2-(4-(4′-(2-((2S)-1-(N-(tetrahydro-2H-pyran-4-yl)-D-valyl)-2-pyrrolidinyl)-1H-imidazol-4-yl)-4-biphenylyl)-1H-imidazol-2-yl)-1-pyrrolidinyl)carbonyl)propyl)carbamate]", "values": [{"measurement": "pEC50", "value": "9.00 to 12.00"}]}
{"smiles": "COC(=O)N[C@H](C(=O)N1CCC[C@H]1c1nc(-c2ccc(-c3ccc(-c4c[nH]c([C@@H]5CCCN5C(=O)[C@@H](C)NC5CCOCC5)n4)cc3)cc2)c[nH]1)C(C)C", "note": "[Example F53, methyl ((1S)-2-methyl-1-(((2S)-2-(4-(4′-(2-((2S)-1-(N-(tetrahydro-2H-pyran-4-yl)-D-alanyl)-2-pyrrolidinyl)-1H-imidazol-4-yl)-4-biphenylyl)-1H-imidazol-2-yl)-1-pyrrolidinyl)carbonyl)propyl)carbamate]", "values": [{"measurement": "pEC50", "value": "9.00 to 12.00"}]}
{"smiles": "COC(=O)N[C@H](C(=O)N1CCC[C@H]1c1nc(-c2ccc(-c3ccc(-c4c[nH]c([C@@H]5CCCN5C(=O)[C@@H](NC(=O)O[C@H]5CCOC5)C(C)C)n4)cc3)cc2)c[nH]1)C(C)C", "note": "[Example F54, (3S)-tetrahydro-3-furanyl ((1S)-1-(((2S)-2-(4-(4′-(2-((2S)-1-(N-(methoxycarbonyl)-L-valyl)-2-pyrrolidinyl)-1H-imidazol-4-yl)-4-biphenylyl)-1H-imidazol-2-yl)-1-pyrrolidinyl)carbonyl)-2-methylpropyl)carbamate]", "values": [{"measurement": "pEC50", "value": "9.00 to 12.00"}]}
{"smiles": "COC(=O)N[C@H](C(=O)N1CCC[C@H]1c1nc(-c2ccc(-c3ccc(-c4c[nH]c([C@@H]5CCCN5C(=O)[C@@H](NC(=O)OC5CCOCC5)C(C)C)n4)cc3)cc2)c[nH]1)C(C)C", "note": "[Example F55, tetrahydro-2H-pyran-4-yl ((1S)-1-(((2S)-2-(4-(4′-(2-((2S)-1-(N-(methoxycarbonyl)-L-valyl)-2-pyrrolidinyl)-1H-imidazol-4-yl)-4-biphenylyl)-1H-imidazol-2-yl)-1-pyrrolidinyl)carbonyl)-2-methylpropyl)carbamate]", "values": [{"measurement": "pEC50", "value": "9.00 to 12.00"}]}
{"smiles": "COC(=O)N[C@H](C(=O)N1CCC[C@H]1c1nc(-c2ccc(-c3ccc(-c4c[nH]c([C@@H]5CCCN5C(=O)[C@@H](NC(=O)O[C@@H]5CCOC5)C(C)C)n4)cc3)cc2)c[nH]1)C(C)C", "note": "[Example F56, (3R)-tetrahydro-3-furanyl ((1S)-1-(((2S)-2-(4-(4′-(2-((2S)-1-(N-(methoxycarbonyl)-L-valyl)-2-pyrrolidinyl)-1H-imidazol-4-yl)-4-biphenylyl)-1H-imidazol-2-yl)-1-pyrrolidinyl)carbonyl)-2-methylpropyl)carbamate]", "values": [{"measurement": "pEC50", "value": "9.00 to 12.00"}]}
{"smiles": "COC(=O)N[C@H](C(=O)N1CCC[C@H]1c1nc(-c2ccc(-c3ccc(-c4cnc([C@@H]5CCCN5C(=O)[C@H](NC(=O)OC)C5CCOCC5)[nH]4)cc3)cc2)c[nH]1)C(C)C", "note": "[Example F57, methyl ((1S)-1-(((2S)-2-(4-(4′-(2-((2S)-1-((2R)-2-((methoxycarbonyl)amino)-2-(tetrahydro-2H-pyran-4-yl)acetyl)-2-pyrrolidinyl)-1H-imidazol-5-yl)-4-biphenylyl)-1H-imidazol-2-yl)-1-pyrrolidinyl)carbonyl)-2-methylpropyl)carbamate]", "values": [{"measurement": "pEC50", "value": "9.00 to 12.00"}]}
{"smiles": "COC(=O)N[C@H](C(=O)N1CCC[C@H]1c1nc(-c2ccc(-c3ccc(-c4cnc([C@@H]5CCCN5C(=O)[C@@H](NC(=O)OC)C5CCOCC5)[nH]4)cc3)cc2)c[nH]1)C(C)C", "note": "[Example F58, methyl ((1S)-1-(((2S)-2-(4-(4′-(2-((2S)-1-((2S)-2-((methoxycarbonyl)amino)-2-(tetrahydro-2H-pyran-4-yl)acetyl)-2-pyrrolidinyl)-1H-imidazol-5-yl)-4-biphenylyl)-1H-imidazol-2-yl)-1-pyrrolidinyl)carbonyl)-2-methylpropyl)carbamate]", "values": [{"measurement": "pEC50", "value": "9.00 to 12.00"}]}
